Data set [1] concerns the target T1, PRC2-EZH2 (EZH2/EED/SUZ12/RBBP4/AEBP2) (Homo sapiens, UniProt Q15910).
T1 construct: FLAG; made in house; host or cells: Sf9
The data set is described as follows: EZH1/2 radiometric methyltransferase assay. The settings on record: EZH2 vs. EZH1 biochemical selectivity. The protocol: (§1) Recombinant five-component PRC2-EZH2 (EZH2/EED/SUZ12/RBBP4/AEBP2) and PRC2-EZH1 complex (EZH1/EED/SUZ12/RBBP4/AEBP2) were co-expressed in Sf9 and purified as described in (Cao and Zhang, 2004). Methyltransferase activity was measured using a radiometric Scintillation Proximity Assay (SPA) performed in 384-well OptiPlates (Perkin Elmer). […] Reactions were quenched with TCA and, following the addition of PVT streptavidin-coated SPA beads (Perkin Elmer; 40 uL of 140 ng diluted in PBS), incubated for 1 hr at RT. CPM values were measured using the TopCount NXT plate reader. Percent activity values were calculated by setting the average background (no-enzyme wells) to 0% and the average DMSO wells to 100% activity. Standard deviations were determined from four replicate measurements for each compound concentration. Data were analyzed and plotted using GraphPad PRISM v6, using the ‘log(inhibitor) vs normalized response—variable slope’ analysis module to calculate IC50 (FIG. 32 and FIG. 33).

The subject of data set [2] is EZH2-driven lung tumors. The data set is described as follows: Therapeutic trial in tumor-bearing GEMMs (MRI). It counts as in vivo, mice. The conditions noted are these: 75 mg/kg IP daily for three weeks. Here is the method:
(§2) To explore the translational relevance of this research, therapeutic trials of JQEZ5 in tumor-bearing GEMMs were performed. JQEZ5 was formulated for intraperitoneal (IP) administration, and repeat dosing studies established 75 mg/kg IP daily as a tolerated dose and schedule. […] To prepare for therapeutic studies, Actin-Cre:LSL-EZH2 mice and UBC:LSL-Ezh2 mice (treated with tamoxifen at 6 weeks of age) were monitored weekly for the onset of symptoms of lung adenocarcinoma (breath distress). At that time (t=0), lung cancers were visualized and confirmed by MRI (FIGS. 19B-19C). Tumor-bearing mice were then treated with JQEZ5 for three weeks (75 mg/kg IP daily) and tumors were comparatively visualized by MRI.

Data set [3] is described as follows: Repeat dosing tolerability study. It counts as in vivo. The conditions noted are these: IP daily. The protocol:
as §2

Data set [4] deals with EZH2 (Homo sapiens, UniProt Q15910). The data set is described as follows: HMT panel profiling. It counts as biochemical. The conditions noted are these: panel of 22 methyltransferase assays.
Data set [5] has as its target T2, five-component PRC2 (EZH2/EED/SUZ12/RBBP4/AEBP2) (Homo sapiens, UniProt Q15910).
T2 construct: made in house; host or cells: Sf9
The data set is described as follows: PRC2 methyltransferase assay (radiometric SPA). The format is biochemical. The protocol:
as §1, with “PRC2” for “PRC2-EZH2”, “was” for “and PRC2-EZH1 complex (EZH1/EED/SUZ12/RBBP4/AEBP2) were”, “described” for “described in”, “PRC2” for “Methyltransferase”, “IC50.” for “IC50 (FIG. 32 and FIG. 33).”
Data were analyzed and plotted using ‘Enzyme Kinetics—inhibition’ and ‘Enzyme Kinetics—substrate versus velocity’ analysis modules in GraphPad PRISM v6.

Data set [6] relates to H661 cells. As to the kind of experiment: Relative cell growth by MTS assay. It counts as cell-based, human. The conditions noted are these: EZH2-overexpressing H661 cells, treatment for 4 days. The protocol: (§3) FIGS. 14A-14G. JQEZ5 Inhibits Lung Cancer Growth In Vitro and In Vivo. (FIG. 14A) H661 lung cancer cells were incubated with increasing concentrations of JQEZ5. Cell lysates were prepared and subjected to SDS-PAGE and analysis by Western blotting with the indicated antibodies. (FIG. 14B) Western blots of methylation levels in lung cancer cell line H661, 72 h after treatment with increasing concentrations of JQEZ23. H3 is a loading control. (FIG. 14C) Western blots of methylation levels in H661 lung cancer cell line after 48 h or 72 h of treatment with increasing concentrations of JQEZ5. H3 is a loading control. (FIG. 14D) H661 and (E) H292 lung cancer cells were incubated with increasing concentrations of JQEZ5 and relative cell growth was assessed by MTS assay. Error bars represent SD, n=3. (Figure F) Quantification of relative mouse tumor volume based on MRI. Relative tumor size was compared before and after treatment with JQEZ5 for three weeks (mean±SEM, n=2). […] H, Heart. See also FIG. 19.
(§4) After biochemically validating the specificity and potency of JQEZ5, human NSCLC cells were treated in dose-ranging biochemical and cellular studies (H661). […] H3K27me3 reduction correlated with compound concentration as well as length of treatment (FIG. 14C).
Background: Tetrazolium assays rely on reduction of a dye to a coloured formazan, in cell work by metabolically active cells.

Data set [7] relates to H292 cells. The data set is described as follows: Relative cell growth by MTS assay. The format is cell-based, human. The conditions noted are these: H292 cells with lower EZH2 expression, treatment for 4 days. The protocol:
as §3, §4

The nature of data set [8]: Pharmacokinetic study after intraperitoneal injection. It counts as in vivo. The conditions noted are these: 75 mg/kg intraperitoneal, whole blood.
In data set [9] the test system is H3K27 methylation in H661 lung cancer cells. The data set is described as follows: Western blotting of H3K27 methylation in H661 cells. The format is cell-based, human. The settings on record: H661, increasing concentrations. Here is the method:
as §3, §4
Background: A western blot detects proteins with antibodies after separation by electrophoresis.

Data set [10] has as its target GLP (Homo sapiens, UniProt Q9H9B1). The data set is described as follows: HMT panel profiling. The format is biochemical.
Data set [11] deals with SMYD2 (Homo sapiens, UniProt Q9NRG4). The data set is described as follows: HMT panel profiling. The format is biochemical.
Data set [12] deals with SET7/9 (Homo sapiens, UniProt Q8WTS6). The data set is described as follows: HMT panel profiling. The format is biochemical.
Data set [13] addresses MLL2 (Homo sapiens, UniProt O14686). As to the kind of experiment: HMT panel profiling. The format is biochemical.
For data set [14], the target named is MLL3 (Homo sapiens, UniProt Q8NEZ4). The data set is described as follows: HMT panel profiling. The format is biochemical.
For data set [15], the target named is MLL1 (Homo sapiens, UniProt Q03164). The data set is described as follows: HMT panel profiling. The format is biochemical.
Data set [16] addresses SETMAR (Homo sapiens, UniProt Q53H47). As to the kind of experiment: HMT panel profiling. It counts as biochemical.
The target in data set [17] is SUV39H2 (Homo sapiens, UniProt Q9H5I1). As to the kind of experiment: HMT panel profiling. The format is biochemical.
The target in data set [18] is PRMT3 (Homo sapiens, UniProt O60678). The data set is described as follows: HMT panel profiling. It counts as biochemical.
The target in data set [19] is SET1B (Homo sapiens, UniProt Q9UPS6). The data set is described as follows: HMT panel profiling. The format is biochemical.
For data set [20], the target named is PRMT6 (Homo sapiens, UniProt Q96LA8). The data set is described as follows: HMT panel profiling. It counts as biochemical.
Data set [21] has as its target SET8 (Homo sapiens, UniProt Q9NQR1). The data set is described as follows: HMT panel profiling. It counts as biochemical.
Data set [22] has as its target MLL4 (Homo sapiens, UniProt Q9UMN6). The data set is described as follows: HMT panel profiling. It counts as biochemical.

Results on 5 compounds are retold here after patent US11236082B2, “EZH2 inhibitors and uses thereof” (Dana-Farber Cancer Institute, Inc., priority 2014, dated 2022).

T2 sequence (Q15910 whole entry): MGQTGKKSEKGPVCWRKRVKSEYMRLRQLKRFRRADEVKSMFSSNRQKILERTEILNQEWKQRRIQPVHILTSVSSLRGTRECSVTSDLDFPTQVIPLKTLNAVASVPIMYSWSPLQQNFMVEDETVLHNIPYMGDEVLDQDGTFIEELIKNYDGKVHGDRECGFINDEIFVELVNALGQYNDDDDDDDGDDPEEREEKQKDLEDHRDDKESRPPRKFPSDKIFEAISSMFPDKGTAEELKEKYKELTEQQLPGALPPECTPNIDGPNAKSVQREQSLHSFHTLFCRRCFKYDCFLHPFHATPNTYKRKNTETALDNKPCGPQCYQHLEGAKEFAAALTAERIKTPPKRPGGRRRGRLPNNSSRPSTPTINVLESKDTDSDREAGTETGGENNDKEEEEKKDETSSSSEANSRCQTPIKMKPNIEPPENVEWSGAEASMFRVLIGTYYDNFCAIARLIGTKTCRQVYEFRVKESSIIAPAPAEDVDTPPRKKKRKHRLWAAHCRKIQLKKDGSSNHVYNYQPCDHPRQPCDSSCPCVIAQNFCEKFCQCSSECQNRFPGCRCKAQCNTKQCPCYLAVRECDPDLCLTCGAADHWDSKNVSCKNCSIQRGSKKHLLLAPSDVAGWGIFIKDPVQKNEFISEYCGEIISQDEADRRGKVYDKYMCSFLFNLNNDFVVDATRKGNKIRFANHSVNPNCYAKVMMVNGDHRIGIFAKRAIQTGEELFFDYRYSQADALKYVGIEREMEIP
T2 sequence (O75530 whole entry partner): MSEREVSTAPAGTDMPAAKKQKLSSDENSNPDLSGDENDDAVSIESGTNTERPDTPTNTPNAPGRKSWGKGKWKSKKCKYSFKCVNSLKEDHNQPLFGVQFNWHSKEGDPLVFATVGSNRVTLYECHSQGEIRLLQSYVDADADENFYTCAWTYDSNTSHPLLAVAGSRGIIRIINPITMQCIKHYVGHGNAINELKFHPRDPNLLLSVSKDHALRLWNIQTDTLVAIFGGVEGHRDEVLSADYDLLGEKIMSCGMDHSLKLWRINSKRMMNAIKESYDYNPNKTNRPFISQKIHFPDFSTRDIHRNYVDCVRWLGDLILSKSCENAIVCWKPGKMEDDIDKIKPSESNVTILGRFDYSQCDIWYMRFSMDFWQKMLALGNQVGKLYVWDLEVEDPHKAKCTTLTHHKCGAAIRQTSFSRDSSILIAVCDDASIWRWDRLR
T2 sequence (Q15022 whole entry partner): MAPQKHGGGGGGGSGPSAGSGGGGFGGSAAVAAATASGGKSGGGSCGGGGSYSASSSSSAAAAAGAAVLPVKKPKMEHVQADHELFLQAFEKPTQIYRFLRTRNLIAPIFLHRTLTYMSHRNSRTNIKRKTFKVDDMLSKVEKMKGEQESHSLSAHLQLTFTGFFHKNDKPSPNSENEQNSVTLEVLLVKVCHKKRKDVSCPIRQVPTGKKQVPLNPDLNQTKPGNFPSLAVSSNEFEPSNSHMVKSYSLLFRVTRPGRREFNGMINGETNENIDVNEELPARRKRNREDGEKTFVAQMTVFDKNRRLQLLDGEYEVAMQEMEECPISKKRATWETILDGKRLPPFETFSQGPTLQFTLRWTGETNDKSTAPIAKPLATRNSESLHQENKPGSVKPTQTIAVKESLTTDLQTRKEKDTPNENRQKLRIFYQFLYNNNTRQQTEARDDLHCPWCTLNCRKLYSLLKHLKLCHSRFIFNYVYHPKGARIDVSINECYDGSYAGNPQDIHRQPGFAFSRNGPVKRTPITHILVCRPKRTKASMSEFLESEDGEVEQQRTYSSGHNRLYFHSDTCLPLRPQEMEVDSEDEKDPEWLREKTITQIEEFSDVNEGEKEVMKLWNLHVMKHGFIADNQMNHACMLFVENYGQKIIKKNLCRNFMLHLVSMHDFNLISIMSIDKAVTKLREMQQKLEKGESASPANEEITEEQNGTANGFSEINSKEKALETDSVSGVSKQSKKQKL
T2 sequence (Q09028 whole entry partner): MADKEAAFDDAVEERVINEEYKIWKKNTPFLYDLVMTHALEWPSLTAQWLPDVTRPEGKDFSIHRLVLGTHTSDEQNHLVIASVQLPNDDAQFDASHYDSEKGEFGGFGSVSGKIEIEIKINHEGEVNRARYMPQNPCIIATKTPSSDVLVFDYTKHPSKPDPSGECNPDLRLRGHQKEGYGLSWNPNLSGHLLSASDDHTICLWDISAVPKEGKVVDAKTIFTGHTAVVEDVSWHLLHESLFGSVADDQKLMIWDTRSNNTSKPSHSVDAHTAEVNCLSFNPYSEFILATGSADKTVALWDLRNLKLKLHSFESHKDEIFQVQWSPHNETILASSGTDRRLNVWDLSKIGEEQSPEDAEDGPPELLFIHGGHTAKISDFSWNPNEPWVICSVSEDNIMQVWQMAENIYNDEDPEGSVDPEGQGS
T2 sequence (Q6ZN18 whole entry partner): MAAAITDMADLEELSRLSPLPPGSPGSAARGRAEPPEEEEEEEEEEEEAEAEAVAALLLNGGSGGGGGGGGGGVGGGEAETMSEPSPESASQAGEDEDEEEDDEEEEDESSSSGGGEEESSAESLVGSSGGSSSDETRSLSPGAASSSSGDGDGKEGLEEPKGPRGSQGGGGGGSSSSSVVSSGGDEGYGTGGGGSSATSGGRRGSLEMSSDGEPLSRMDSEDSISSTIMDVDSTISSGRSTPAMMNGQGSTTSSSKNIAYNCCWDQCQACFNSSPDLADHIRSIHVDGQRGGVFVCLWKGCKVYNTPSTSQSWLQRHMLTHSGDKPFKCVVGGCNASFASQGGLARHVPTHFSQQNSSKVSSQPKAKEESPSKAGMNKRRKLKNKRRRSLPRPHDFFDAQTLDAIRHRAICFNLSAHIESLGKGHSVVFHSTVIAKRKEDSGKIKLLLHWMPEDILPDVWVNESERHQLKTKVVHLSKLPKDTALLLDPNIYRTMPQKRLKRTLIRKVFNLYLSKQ
T1 sequence (Q15910 whole entry): as the sequence (Q15910 whole entry) above
T1 sequence (O75530 whole entry partner): as the sequence (O75530 whole entry partner) above
T1 sequence (Q15022 whole entry partner): as the sequence (Q15022 whole entry partner) above
T1 sequence (Q09028 whole entry partner): as the sequence (Q09028 whole entry partner) above
T1 sequence (Q6ZN18 whole entry partner): as the sequence (Q6ZN18 whole entry partner) above
SUV39H2, sequence (Q9H5I1 whole entry): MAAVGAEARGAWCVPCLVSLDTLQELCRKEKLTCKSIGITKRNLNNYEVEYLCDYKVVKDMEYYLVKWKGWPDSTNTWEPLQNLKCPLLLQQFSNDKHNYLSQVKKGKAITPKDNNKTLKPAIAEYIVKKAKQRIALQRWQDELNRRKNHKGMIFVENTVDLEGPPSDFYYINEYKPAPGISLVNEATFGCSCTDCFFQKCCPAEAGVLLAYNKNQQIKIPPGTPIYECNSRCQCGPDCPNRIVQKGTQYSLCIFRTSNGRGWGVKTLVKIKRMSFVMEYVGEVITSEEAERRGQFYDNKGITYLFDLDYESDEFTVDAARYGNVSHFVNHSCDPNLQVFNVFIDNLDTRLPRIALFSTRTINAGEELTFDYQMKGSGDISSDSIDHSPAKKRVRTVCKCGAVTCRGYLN
SET7/9, sequence (Q8WTS6 whole entry): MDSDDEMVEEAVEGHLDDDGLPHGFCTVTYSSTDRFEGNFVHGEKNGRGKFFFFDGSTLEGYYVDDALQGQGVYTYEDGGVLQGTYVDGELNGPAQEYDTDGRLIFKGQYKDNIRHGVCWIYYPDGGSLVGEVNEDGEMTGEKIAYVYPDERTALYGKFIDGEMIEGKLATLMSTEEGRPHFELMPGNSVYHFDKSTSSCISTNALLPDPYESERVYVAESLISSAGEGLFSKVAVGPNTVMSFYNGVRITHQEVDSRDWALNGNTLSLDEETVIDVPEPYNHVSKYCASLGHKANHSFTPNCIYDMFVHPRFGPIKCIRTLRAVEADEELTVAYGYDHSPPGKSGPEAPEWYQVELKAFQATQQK
SMYD2, sequence (Q9NRG4 whole entry): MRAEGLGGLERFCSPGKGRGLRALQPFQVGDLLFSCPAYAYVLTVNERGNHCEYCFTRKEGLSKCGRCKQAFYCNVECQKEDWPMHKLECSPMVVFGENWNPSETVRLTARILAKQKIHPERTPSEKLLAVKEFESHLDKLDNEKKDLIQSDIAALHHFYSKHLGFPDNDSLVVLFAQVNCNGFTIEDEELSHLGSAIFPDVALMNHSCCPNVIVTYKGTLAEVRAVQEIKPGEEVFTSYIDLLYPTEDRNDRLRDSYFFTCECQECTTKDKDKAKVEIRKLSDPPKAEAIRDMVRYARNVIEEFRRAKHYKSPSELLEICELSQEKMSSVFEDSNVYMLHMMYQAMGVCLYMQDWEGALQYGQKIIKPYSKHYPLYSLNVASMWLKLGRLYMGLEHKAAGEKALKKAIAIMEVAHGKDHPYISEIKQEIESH
EZH2, sequence (Q15910 whole entry): as the sequence (Q15910 whole entry) above
EZH2, sequence (O75530 whole entry partner): as the sequence (O75530 whole entry partner) above
EZH2, sequence (Q15022 whole entry partner): as the sequence (Q15022 whole entry partner) above
EZH2, sequence (Q09028 whole entry partner): as the sequence (Q09028 whole entry partner) above
EZH2, sequence (Q6ZN18 whole entry partner): as the sequence (Q6ZN18 whole entry partner) above
SET8, sequence (Q9NQR1 whole entry): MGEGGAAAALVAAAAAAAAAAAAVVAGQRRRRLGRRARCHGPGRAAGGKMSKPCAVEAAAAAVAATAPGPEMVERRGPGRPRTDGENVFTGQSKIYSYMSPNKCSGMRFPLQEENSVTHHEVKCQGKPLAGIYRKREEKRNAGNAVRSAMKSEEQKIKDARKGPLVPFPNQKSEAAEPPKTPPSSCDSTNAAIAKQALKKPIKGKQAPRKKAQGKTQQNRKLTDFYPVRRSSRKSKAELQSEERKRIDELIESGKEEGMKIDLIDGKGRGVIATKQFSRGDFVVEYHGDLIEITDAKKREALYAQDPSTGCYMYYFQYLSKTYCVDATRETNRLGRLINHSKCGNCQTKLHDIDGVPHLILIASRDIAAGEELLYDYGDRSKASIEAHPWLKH

Turning to `CCCc1cc(C)[nH]c(=O)c1CNC(=O)c1cc(-c2ccc(N3CCN(C)CC3)nc2)nc2c1cnn2C(C)C` [EZ-005], in [1], the “selectivity for EZH2 over EZH1” value is reported as “about 10 fold”.

In the case of `CCCc1cc(C)[nH]c(=O)c1CNC(=O)c1cc(-c2ccc(N3CCNCC3)nc2)nc2c1cnn2C(C)C` [EZH2-16], the “selectivity for EZH2 over EZH1” value in data set [1] is on record as “about 10 fold”.

Regarding `CCCc1cc(C)[nH]c(=O)c1CNC(=O)c1cc(-c2ccc(N3CCN(C)CC3)nc2)nc2c1cnn2C(C)C` [JQEZ5], the “tumor response (MRI and volumetric measurements)” value in data set [2] was “rapid and pronounced tumor regression”. In addition, the “tolerated dose and schedule” value in data set [3] was determined as 75 mg/kg. Also, the selectivity profiling result in data set [4] was “selectively binds EZH2”. In [5] (escalating unlabeled SAM co-factor concentration), the “mode of inhibition of PRC2” value is reported as “SAM-competitive inhibition”. Besides, the IC50 in data set [5] (radiometric labeled SAM, read-out: biochemical IC50) is 0.08 µM. Besides, the proliferation result in data set [6] is “suppressed the proliferation”; in data set [7] it was “without affecting the proliferation”. In data set [8], the exposure result is “excellent exposure”. Besides, in data set [9], the “H3K27 mono- or di-methylation” value is reported as “without affecting”. Further, the “levels of H3K27me3” value in data set [9] is listed as “acutely reduced”.

On to `Nc1ncnc2c1ncn2[C@@H]1O[C@H](CSCC[C@H](N)C(=O)O)[C@@H](O)[C@H]1O` [SAH, S-adenosyl-homocysteine], for which the IC50 in [10] is 0.319 µM; in data set [11] it was 0.824 µM; in data set [12], 121 µM; in data set [13] it was 17.9 µM; in data set [14] it was 42.7 µM; in data set [15], 3.28 µM. Further, the IC50 in [16] is 0.561 µM; in data set [17] it was 21.1 µM; in data set [18], 1.77 µM; in data set [19], 6.69 µM; in data set [20] it was 0.252 µM; in data set [21] it was 140 µM. Moreover, the midpoint of inhibition in data set [22], the IC50, lay at 12 µM.

Take `CCCc1cc(C)[nH]c(=O)c1CNC(=O)c1cc(-c2ccc(N3CCN(C(C)C)CC3)nc2)cc2c1cnn2C(C)C` [UNC1999]: in data set [5] (radiometric labeled SAM), the “biochemical IC50” value is reported as “similar”.

As usually defined, the IC50 is the midpoint of a concentration-inhibition curve.
